Columns and labels:
Lck (h) = Lck (h) (Homo sapiens, UniProt P06239); assay: Lck Human  Kinase Enzymatic Radiometric Assay; format: biochemical; conditions: read-out: Lck IC50 nM Range*
Procedure, shortened: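 Substrate 33P-incorporation measured by scintillation counting after spotting on P30 filtermat and phosphoric acid washes. Human Lck reacted 40 min at RT in 50 mM Tris pH 7.5 with 10 mM MgAcetate, [gamma-33P]-ATP, 250 uM Cdc2 peptide, 0.1 mM EGTA and 0.1 mM Na3VO4.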

[1] = target: T1, Recombinant (1-346) HPK1 (h) (Homo sapiens, UniProt Q92918); assay: HPK1 Human STE Kinase Enzymatic Radiometric Assay; format: biochemical; conditions: read-out: HPK1 IC50 nM Range*
T1 construct: Recombinant (1-346) HPK1 (h) is incubated with 8 mM MOPS pH 7.0
T1 sequence (Q92918 1-346): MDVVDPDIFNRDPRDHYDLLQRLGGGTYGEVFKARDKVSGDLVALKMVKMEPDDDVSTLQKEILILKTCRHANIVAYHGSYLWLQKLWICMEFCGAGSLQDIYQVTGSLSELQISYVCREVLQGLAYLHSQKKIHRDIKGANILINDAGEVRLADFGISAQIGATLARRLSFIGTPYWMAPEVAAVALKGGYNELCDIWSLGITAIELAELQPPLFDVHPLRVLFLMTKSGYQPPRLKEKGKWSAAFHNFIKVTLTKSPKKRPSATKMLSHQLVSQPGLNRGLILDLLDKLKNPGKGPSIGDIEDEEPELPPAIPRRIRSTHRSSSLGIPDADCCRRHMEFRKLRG
Protocol: A stock solution of 10 mM of test compound is prepared in DMSO. The compound plate was prepared by 3-fold and 9-point serial dilutions. […] The reaction is initiated by The addition of the Mg/ATP mix. After incubation for 40 minutes at RT, the reaction is stopped by the addition of phosphoric acid to a concentration of 0.5%.

Chain of Lck (h) (P06239 whole entry): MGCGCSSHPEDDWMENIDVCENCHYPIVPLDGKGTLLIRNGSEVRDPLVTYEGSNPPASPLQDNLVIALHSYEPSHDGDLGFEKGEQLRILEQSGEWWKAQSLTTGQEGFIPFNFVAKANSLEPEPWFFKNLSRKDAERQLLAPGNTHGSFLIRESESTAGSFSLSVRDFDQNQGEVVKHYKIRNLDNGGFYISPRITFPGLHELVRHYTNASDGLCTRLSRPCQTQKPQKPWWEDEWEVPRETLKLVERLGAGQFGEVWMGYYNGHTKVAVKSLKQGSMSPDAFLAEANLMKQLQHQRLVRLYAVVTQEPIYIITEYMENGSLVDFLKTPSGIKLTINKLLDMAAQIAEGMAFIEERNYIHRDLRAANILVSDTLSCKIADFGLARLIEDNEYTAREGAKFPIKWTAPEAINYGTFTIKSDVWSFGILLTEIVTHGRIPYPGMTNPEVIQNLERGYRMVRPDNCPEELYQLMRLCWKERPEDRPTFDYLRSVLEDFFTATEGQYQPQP

For `CC(C)[C@H]1CN(c2ccc(-c3cc(-c4cc5c(cn4)C(=O)NCC5)c(N)nc3F)cc2)CCO1` [I-77, (S)-6-(2-amino-6-fluoro-5-(4-(2-isopropylmorpholino)phenyl)pyridin-3-yl)-3,4-dihydro-2,7-naphthyridin-1(2H)-one 2,2,2-trifluoroacetate], the IC50 (Lck (h)) was over 1000 nM and the IC50 [1] was 0.1 to 10 nM.

`Nc1nc(F)c(-c2ccc(C3CCCN(CC(F)F)C3)cc2)cc1-c1ccc2c(c1)CCNC2=O` (centres unmarked) [I-78, 6-(2-amino-5-(4-(1-(2,2-difluoroethyl)piperidin-3-yl)phenyl)-6-fluoropyridin-3-yl)-3,4-dihydroisoquinolin-1(2H)-one] gave an IC50 (Lck (h)) of over 1000 nM and an IC50 [1] of 0.1 to 10 nM.

In the case of `CC(C)N1CCC(c2ccc(-c3cc(-c4ccc5c(c4)CCNC5=O)c(N)nc3F)cc2)CC1` [I-79, 6-(2-amino-6-fluoro-5-(4-(1-isopropylpiperidin-4-yl)phenyl)pyridin-3-yl)-3,4-dihydroisoquinolin-1(2H)-one], the IC50 (Lck (h)) was over 1000 nM and the IC50 [1] was 0.1 to 10 nM.

Work on `CC(C)N1CCCC(c2ccc(-c3cc(-c4ccc5c(c4)CCNC5=O)c(N)nc3F)cc2)C1` (centres unmarked) [I-80, 6-(2-amino-6-fluoro-5-(4-(1-isopropylpiperidin-3-yl)phenyl)pyridin-3-yl)-3,4-dihydroisoquinolin-1(2H)-one] yielded an IC50 (Lck (h)) of over 1000 nM and an IC50 [1] of 0.1 to 10 nM.

`CC(C)N1CC=C(c2ccc(-c3cc(-c4ccc5c(c4)CCNC5=O)c(N)nc3F)cc2)CC1` [I-81, 6-(2-amino-6-fluoro-5-(4-(1-isopropyl-1,2,3,6-tetrahydropyridin-4-yl)phenyl)pyridin-3-yl)-3,4-dihydroisoquinolin-1(2H)-one] was tested, and the IC50 (Lck (h)) was over 1000 nM and the IC50 [1] was 0.1 to 10 nM.

Work on `Nc1nc(F)c(-c2ccc(C3CCCN(CCO)C3)cc2)cc1-c1ccc2c(c1)CCNC2=O` (centres unmarked) [I-82, 6-(2-amino-6-fluoro-5-(4-(1-(2-hydroxyethyl)piperidin-3-yl)phenyl)pyridin-3-yl)-3,4-dihydroisoquinolin-1(2H)-one] yielded an IC50 (Lck (h)) of over 1000 nM and an IC50 [1] of 0.1 to 10 nM.

`CC(C)(C)OC(=O)N1CCC(S(=O)(=O)c2ccc(-c3cc(-c4ccc5c(c4)CCNC5=O)c(N)nc3F)cc2)CC1` [I-83, tert-butyl 4-((4-(6-amino-2-fluoro-5-(1-oxo-1,2,3,4-tetrahydroisoquinolin-6-yl)pyridin-3-yl)phenyl)sulfonyl)piperidine-1-carboxylate] gave an IC50 (Lck (h)) of over 1000 nM and an IC50 [1] of 11 to 100 nM.

For `Nc1nc(F)c(-c2ccc(S(=O)(=O)C3CNC3)cc2)cc1-c1ccc2c(c1)CCNC2=O` [I-84, 6-(2-amino-5-(4-(azetidin-3-ylsulfonyl)phenyl)-6-fluoropyridin-3-yl)-3,4-dihydroisoquinolin-1(2H)-one], the IC50 (Lck (h)) was over 1000 nM and the IC50 [1] was 11 to 100 nM.

`CCS(=N)(=O)c1ccc(-c2cc(-c3ccc4c(c3)CCNC4=O)c(N)nc2F)cc1` (centres unmarked) [I-85, 6-(2-amino-5-(4-(ethylsulfonimidoyl)phenyl)-6-fluoropyridin-3-yl)-3,4-dihydroisoquinolin-1(2H)-one] gave an IC50 (Lck (h)) of over 1000 nM and an IC50 [1] of 11 to 100 nM.

Molecule `CS(=N)(=O)c1ccc(-c2cc(-c3ccc4c(c3)CCNC4=O)c(N)nc2F)cc1` (centres unmarked) [I-86, 6-(2-amino-6-fluoro-5-(4-(S-methylsulfonimidoyl)phenyl)pyridin-3-yl)-3,4-dihydroisoquinolin-1(2H)-one] has an IC50 (Lck (h)) of over 1000 nM and an IC50 [1] of 0.1 to 10 nM.

`Nc1nc(F)c(-c2ccc(S(=O)(=O)C(F)(F)F)cc2)cc1-c1ccc2c(c1)CCNC2=O` [I-87, 6-(2-amino-6-fluoro-5-(4-((trifluoromethyl)sulfonyl)phenyl)pyridin-3-yl)-3,4-dihydroisoquinolin-1(2H)-one] showed an IC50 (Lck (h)) of over 1000 nM and an IC50 [1] of 11 to 100 nM.

In the case of `CC1CN(c2ccc(-c3cc(-c4ccc5c(c4)CCNC5=O)c(N)nc3F)cc2)CCN1C` (centres unmarked) [I-88, 6-(2-amino-5-(4-(3,4-dimethylpiperazin-1-yl)phenyl)-6-fluoropyridin-3-yl)-3,4-dihydroisoquinolin-1(2H)-one], the IC50 (Lck (h)) was over 1000 nM and the IC50 [1] was 0.1 to 10 nM.

For `Nc1nc(F)c(-c2ccc(C3CCCN(CC(F)(F)F)C3)cc2)cc1-c1ccc2c(c1)CCNC2=O` (centres unmarked) [I-89, 6-(2-amino-6-fluoro-5-(4-(1-(2,2,2-trifluoroethyl)piperidin-3-yl)phenyl)pyridin-3-yl)-3,4-dihydroisoquinolin-1(2H)-one], the IC50 (Lck (h)) was over 1000 nM and the IC50 [1] was 11 to 100 nM.

In the case of `Nc1nc(F)c(-c2ccc(C3CN(CC(F)(F)F)CCO3)cc2)cc1-c1ccc2c(c1)CCNC2=O` (centres unmarked) [I-90, 6-(2-amino-6-fluoro-5-(4-(4-(2,2,2-trifluoroethyl)morpholin-2-yl)phenyl)pyridin-3-yl)-3,4-dihydroisoquinolin-1(2H)-one], the IC50 (Lck (h)) was over 1000 nM and the IC50 [1] was 11 to 100 nM.

`Nc1nc(F)c(-c2ccc(N3C[C@H]4COC[C@H]4C3)cc2)cc1-c1ccc2c(c1)CCNC2=O` [I-91, 6-(2-amino-6-fluoro-5-(4-((3aR,6aS)-tetrahydro-1H-furo[3,4-c]pyrrol-5(3H)-yl)phenyl)pyridin-3-yl)-3,4-dihydroisoquinolin-1(2H)-one] was tested, and the IC50 (Lck (h)) was over 1000 nM and the IC50 [1] was 11 to 100 nM.

With `Nc1nc(F)c(-c2ccc(N3C[C@@H]4CCO[C@@H]4C3)cc2)cc1-c1ccc2c(c1)CCNC2=O` [I-92, 6-(2-amino-6-fluoro-5-(4-((3aS,6aS)-hexahydro-5H-furo[2,3-c]pyrrol-5-yl)phenyl)pyridin-3-yl)-3,4-dihydroisoquinolin-1(2H)-one] the IC50 (Lck (h)) was over 1000 nM and the IC50 [1] was 0.1 to 10 nM.

In the case of `Nc1nc(F)c(-c2ccc(C3CCCCN3CC(F)(F)F)cc2)cc1-c1ccc2c(c1)CCNC2=O` (centres unmarked) [I-93, 6-(2-amino-6-fluoro-5-(4-(1-(2,2,2-trifluoroethyl)piperidin-2-yl)phenyl)pyridin-3-yl)-3,4-dihydroisoquinolin-1(2H)-one], the IC50 (Lck (h)) was over 1000 nM and the IC50 [1] was 11 to 100 nM.

`Nc1nc(F)c(-c2ccc(O[C@H]3CCCNC3)cc2)cc1-c1ccc2c(c1)CCNC2=O` [I-94, (S)-6-(2-amino-6-fluoro-5-(4-(piperidin-3-yloxy)phenyl)pyridin-3-yl)-3,4-dihydroisoquinolin-1(2H)-one] gave an IC50 (Lck (h)) of over 1000 nM and an IC50 [1] of 0.1 to 10 nM.

Work on `CC(C)N1CCN(c2ccc(-c3cc(-c4cc5c(cc4F)C(=O)NCC5)c(N)nc3F)cc2)CC1` [I-95, 6-(2-amino-6-fluoro-5-(4-(4-isopropylpiperazin-1-yl)phenyl)pyridin-3-yl)-7-fluoro-3,4-dihydroisoquinolin-1(2H)-one] yielded an IC50 (Lck (h)) of over 1000 nM and an IC50 [1] of 0.1 to 10 nM.

Work on `C[C@@H]1CN(c2ccc(-c3cc(-c4ccc5c(c4)CCNC5=O)c(N)nc3F)cc2)C[C@H](C)N1C` [I-96, 6-(2-amino-6-fluoro-5-(4-((3R,5S)-3,4,5-trimethylpiperazin-1-yl)phenyl)pyridin-3-yl)-3,4-dihydroisoquinolin-1(2H)-one] yielded an IC50 (Lck (h)) of over 1000 nM and an IC50 [1] of 0.1 to 10 nM.

Molecule `C[C@H]1CN(c2ccc(-c3cc(-c4ccc5c(c4)CCNC5=O)c(N)nc3F)cc2)C[C@H](C)N1C` [I-97, 6-(2-amino-6-fluoro-5-(4-((3S,5S)-3,4,5-trimethylpiperazin-1-yl)phenyl)pyridin-3-yl)-3,4-dihydroisoquinolin-1(2H)-one] has an IC50 (Lck (h)) of over 1000 nM and an IC50 [1] of 0.1 to 10 nM.

For `Nc1nc(F)c(-c2ccc(S(=O)(=O)N3CCOCC3)cc2)cc1-c1ccc2c(c1)CCNC2=O` [I-98, 6-(2-amino-6-fluoro-5-(4-(morpholinosulfonyl)phenyl)pyridin-3-yl)-3,4-dihydroisoquinolin-1(2H)-one], the IC50 (Lck (h)) was over 1000 nM and the IC50 [1] was 11 to 100 nM.

In the case of `Nc1nc(F)c(-c2ccc(S(=O)(=O)N3CCCC3)cc2)cc1-c1ccc2c(c1)CCNC2=O` [I-99, 6-(2-amino-6-fluoro-5-(4-(pyrrolidin-1-ylsulfonyl)phenyl)pyridin-3-yl)-3,4-dihydroisoquinolin-1(2H)-one], the IC50 (Lck (h)) was over 1000 nM and the IC50 [1] was 11 to 100 nM.

In the case of `CCN1CCCCC1c1ccc(-c2cc(-c3ccc4c(c3)CCNC4=O)c(N)nc2F)cc1` (centres unmarked) [I-100, 6-(2-amino-5-(4-(1-ethylpiperidin-2-yl)phenyl)-6-fluoropyridin-3-yl)-3,4-dihydroisoquinolin-1(2H)-one], the IC50 (Lck (h)) was over 1000 nM and the IC50 [1] was 0.1 to 10 nM.

Molecule `Nc1nc(F)c(-c2ccc(C3CCCCN3CC(F)F)cc2)cc1-c1ccc2c(c1)CCNC2=O` (centres unmarked) [I-101, 6-(2-amino-5-(4-(1-(2,2-difluoroethyl)piperidin-2-yl)phenyl)-6-fluoropyridin-3-yl)-3,4-dihydroisoquinolin-1(2H)-one] has an IC50 (Lck (h)) of over 1000 nM and an IC50 [1] of 11 to 100 nM.

Work on `CCN1CCOC(c2ccc(-c3cc(-c4ccc5c(c4)CCNC5=O)c(N)nc3F)cc2)C1` (centres unmarked) [I-102, 6-(2-amino-5-(4-(4-ethylmorpholin-2-yl)phenyl)-6-fluoropyridin-3-yl)-3,4-dihydroisoquinolin-1(2H)-one] yielded an IC50 (Lck (h)) of over 1000 nM and an IC50 [1] of 11 to 100 nM.

For `Nc1nc(F)c(-c2ccc(C3CN(CC(F)F)CCO3)cc2)cc1-c1ccc2c(c1)CCNC2=O` (centres unmarked) [I-103, 6-(2-amino-5-(4-(4-(2,2-difluoroethyl)morpholin-2-yl)phenyl)-6-fluoropyridin-3-yl)-3,4-dihydroisoquinolin-1(2H)-one], the IC50 (Lck (h)) was over 1000 nM and the IC50 [1] was 11 to 100 nM.

`CC(C)N1CCCCC1c1ccc(-c2cc(-c3ccc4c(c3)CCNC4=O)c(N)nc2F)cc1` (centres unmarked) [I-104, 6-(2-amino-6-fluoro-5-(4-(1-isopropylpiperidin-2-yl)phenyl)pyridin-3-yl)-3,4-dihydroisoquinolin-1(2H)-one] showed an IC50 (Lck (h)) of over 1000 nM and an IC50 [1] of 0.1 to 10 nM.

Source: patent US20240343704A1, “HALO-SUBSTITUTED AMINO PYRIDINE COMPOUNDS AS INHIBITORS OF THE HAEMATOPOIETIC PROGENITOR KINASE 1 (HPK1)” (priority 2021, published 2024)
